≈ marks a conversion by molar mass, not a printed value.

Common to all, as to type: cell-based
Experiment [1] deals with E. coli ATCC BAA-196_TEM-10. Briefly: MIC by broth microdilution (CLSI), E. coli ATCC BAA-196. The note with it: Escherichia coli, ATCCBAA196; E. coli ATCC BAA-196, TEM-10, ESBL producing strain; 10000 cfu/well; cation-adjusted Mueller Hinton broth with 20 μM human apo-transferrin; read-out: minimum growth inhibition concentration (MIC). The procedure: (§1) Measurement of a minimum growth inhibition concentration (MIC: μg/mL) was performed according to CLSI (Clinical and Laboratory Standards Institute) method, by broth microdilution method, using an inoculation microbe amount of 10000 cfu/well and cation-adjusted Mueller Hinton broth containing human-derived 20 μM apo-transferrin as a test medium.
(In broth dilution the organism is exposed to a series of concentrations in liquid medium.)

In experiment [2] the test system is K. pneumoniae ATCC 700603_SHV18. Briefly: MIC by broth microdilution (CLSI), K. pneumoniae ATCC 700603. The settings on record: Klebsiella pneumoniae, ATCC700603; K. pneumoniae ATCC 700603, SHV-18, ESBL producing strain; 10000 cfu/well; cation-adjusted Mueller Hinton broth with 20 μM human apo-transferrin; read-out: minimum growth inhibition concentration (MIC). How it is done:
as §1

A further experiment relates to P. aeruginosa SR24. Briefly: MIC by broth microdilution (CLSI), P. aeruginosa SR24. The settings on record: Pseudomonas aeruginosa; P. aeruginosa SR24, Ceftazidime-sensitive strain; 10000 cfu/well; cation-adjusted Mueller Hinton broth with 20 μM human apo-transferrin; read-out: minimum growth inhibition concentration (MIC). How it is done:
as §1

The subject of experiment [3] is P. aeruginosa SR27060(metallo). In words: MIC by broth microdilution (CLSI), P. aeruginosa SR27060. The note with it: Pseudomonas aeruginosa; P. aeruginosa SR27060, IMP-1, MBL producing carbapenem-resistant strain; 10000 cfu/well; cation-adjusted Mueller Hinton broth with 20 μM human apo-transferrin; read-out: minimum growth inhibition concentration (MIC). How it is done:
as §1

The next experiment has as its system A. baumannii SR24396. In words: MIC by broth microdilution (CLSI), A. baumannii SR24396. The settings on record: Acinetobacter baumannii, 10000 cfu/well, cation-adjusted Mueller Hinton broth with 20 μM human apo-transferrin, read-out: minimum growth inhibition concentration (MIC). The procedure: as §1
Experiment [4] has as its system P. aeruginosa SR27001(MDRP, IMP-1+). In words: MIC by broth microdilution (CLSI), P. aeruginosa SR27001. The settings on record: Pseudomonas aeruginosa; P. aeruginosa SR27001, MDRP, IMP-1, MBL producing carbapenem-resistant strain; 10000 cfu/well; cation-adjusted Mueller Hinton broth with 20 μM human apo-transferrin; read-out: minimum growth inhibition concentration (MIC). How it is done:
as §1

The test system of experiment [5] is S. maltophilia SR21970(L-1). Briefly: MIC by broth microdilution (CLSI), S. maltophilia SR21970. The settings on record: Stenotrophomonas maltophilia; S. maltophilia SR21970, L-1, MBL producing carbapenem-resistant strain; 10000 cfu/well; cation-adjusted Mueller Hinton broth with 20 μM human apo-transferrin; read-out: minimum growth inhibition concentration (MIC). How it is done: as §1

With `NCC[N+]1(CC2=C(C(=O)[O-])N3C(=O)[C@@H](NC(=O)/C(=N\OC[C@H](NC(=O)c4ccc(O)c(O)c4Cl)C(=O)O)c4csc(N)n4)[C@H]3SC2)CCCC1` [Compound I-2], the MIC in experiment [1] is 0.25 µg/mL (≈ 0.332 µM); in experiment [2], 4 µg/mL (≈ 5.31 µM); in the experiment with P. aeruginosa SR24, 0.125 µg/mL (≈ 0.166 µM); in experiment [3] it was 0.125 µg/mL (≈ 0.166 µM); in the experiment on A. baumannii SR24396, 0.063 µg/mL (≈ 0.0836 µM); in experiment [4], 0.25 µg/mL (≈ 0.332 µM).

Regarding `Nc1nc(/C(=N/OC[C@H](NC(=O)c2ccc(O)c(O)c2Cl)C(=O)[O-])C(=O)N[C@@H]2C(=O)N3C(C(=O)[O-])=C(C[N+]45CCC(CC4)CC5)CS[C@H]23)cs1.[Na+]` [Compound I-23], the MIC in experiment [1] turned out to be 1 µg/mL; in experiment [2], 8 µg/mL; in the experiment with P. aeruginosa SR24, 0.125 µg/mL; in experiment [3] it was 0.5 µg/mL; in experiment [5], 8 µg/mL; with A. baumannii SR24396, 0.25 µg/mL.

Regarding `Nc1nc(/C(=N/OC(CNC(=O)c2ccc(O)c(O)c2Cl)C(=O)[O-])C(=O)N[C@@H]2C(=O)N3C(C(=O)[O-])=C(C[n+]4cccc5c4CCC5)CS[C@H]23)cs1.[Na+]` (stereo partly drawn) [Compound I-13], the MIC in experiment [1] is 1 µg/mL; in experiment [2] it was 0.5 µg/mL; with P. aeruginosa SR24 it was 0.125 µg/mL; in experiment [3] it was 2 µg/mL; in experiment [5], above 32 µg/mL; in the experiment on A. baumannii SR24396, 0.063 µg/mL. The MIC in experiment [4] was 2 µg/mL.

`NCC[N+]1(CC2=C(C(=O)[O-])N3C(=O)[C@@H](NC(=O)/C(=N\OC(CNC(=O)c4ccc(O)c(O)c4Cl)C(=O)O)c4csc(N)n4)[C@H]3SC2)CCCC1` (stereo partly drawn) [Compound I-7]: the MIC was 0.125 µg/mL (≈ 0.166 µM) in experiment [1]; 0.063 µg/mL (≈ 0.0836 µM) in experiment [2]; 0.125 µg/mL (≈ 0.166 µM) with P. aeruginosa SR24; 0.125 µg/mL (≈ 0.166 µM) in experiment [3]; at most 0.031 µg/mL in the experiment with A. baumannii SR24396; 0.5 µg/mL (≈ 0.664 µM) in experiment [4].

Take `C[N+]1(CC2=C(C(=O)[O-])N3C(=O)[C@@H](NC(=O)/C(=N\OC(CNC(=O)c4ccc(O)c(O)c4Cl)C(=O)O)c4csc(N)n4)[C@H]3SC2)[C@@H]2CC[C@H]1C[C@@H](N)C2` (stereo partly drawn) [Compound I-6]: the MIC in experiment [1] is 0.25 µg/mL (≈ 0.321 µM); in experiment [2], 0.125 µg/mL (≈ 0.16 µM); in the experiment with P. aeruginosa SR24 it was 0.125 µg/mL (≈ 0.16 µM); in experiment [3] it was 0.25 µg/mL (≈ 0.321 µM); in the experiment on A. baumannii SR24396 it was at most 0.031 µg/mL; in experiment [4], 0.25 µg/mL (≈ 0.321 µM).

With `Nc1nc(/C(=N/OC[C@H](NC(=O)c2ccc(O)c(O)c2Cl)C(=O)[O-])C(=O)N[C@@H]2C(=O)N3C(C(=O)[O-])=C(C[n+]4cccc5c4CCC5)CS[C@H]23)cs1.[Na+]` [Compound I-3], the MIC stood at 1 µg/mL in experiment [1]; 0.25 µg/mL in the experiment on P. aeruginosa SR24; 1 µg/mL in experiment [3]; 0.125 µg/mL in the experiment on A. baumannii SR24396; 4 µg/mL in experiment [4].

Consider `C[N+]1(CC2=C(C(=O)[O-])N3C(=O)[C@@H](NC(=O)/C(=N\O[C@H](C(=O)[O-])c4ccc(O)c(O)c4)c4csc(N)n4)[C@H]3SC2)CCCC1.[Na+]` [Comparative Example compound 1, reference compound], for which the MIC is 16 µg/mL in experiment [1]; 16 µg/mL in experiment [2]; 8 µg/mL in the experiment with P. aeruginosa SR24; above 32 µg/mL in experiment [3]; above 32 µg/mL in experiment [5]; 4 µg/mL in the experiment on A. baumannii SR24396. Besides, the MIC in experiment [4] is above 32 µg/mL.

On to `Nc1nc(/C(=N/OC(CNC(=O)c2ccc(O)c(O)c2Cl)C(=O)[O-])C(=O)N[C@@H]2C(=O)N3C(C(=O)[O-])=C(C[N+]45CCC(CC4)CC5)CS[C@H]23)cs1.[Na+]` (stereo partly drawn) [Compound I-9], for which the MIC amounted to 0.5 µg/mL in experiment [1]; 0.125 µg/mL in experiment [2]; 0.125 µg/mL with P. aeruginosa SR24; 1 µg/mL in experiment [3]; 1 µg/mL in experiment [5]; 0.063 µg/mL with A. baumannii SR24396. Also, the MIC in experiment [4] was 2 µg/mL.

For `Nc1nc(/C(=N/O[C@H](C(=O)[O-])c2ccc(O)c(O)c2)C(=O)N[C@@H]2C(=O)N3C(C(=O)[O-])=C(C[N+]45CCC(CC4)CC5)CS[C@H]23)cs1.[Na+]` [Comparative Example compound 2, reference compound], the MIC in experiment [1] was 32 µg/mL; in experiment [2], 16 µg/mL; with P. aeruginosa SR24, 8 µg/mL; in experiment [3] it was above 32 µg/mL; in experiment [5], above 32 µg/mL; in the experiment with A. baumannii SR24396, 16 µg/mL. Besides, the MIC in experiment [4] was above 32 µg/mL.

Consider `C[N+]1(CC2=C(C(=O)[O-])N3C(=O)[C@@H](NC(=O)/C(=N\OC[C@H](NC(=O)c4ccc(O)c(O)c4Cl)C(=O)O)c4csc(N)n4)[C@H]3SC2)[C@@H]2CC[C@H]1C[C@@H](N)C2` (stereo partly drawn) [Compound I-1], for which the MIC is 0.25 µg/mL (≈ 0.321 µM) in experiment [1]; 2 µg/mL (≈ 2.57 µM) in experiment [2]; 0.125 µg/mL (≈ 0.16 µM) in the experiment with P. aeruginosa SR24; 0.25 µg/mL (≈ 0.321 µM) in experiment [3]; at most 0.031 µg/mL in the experiment on A. baumannii SR24396; 0.5 µg/mL (≈ 0.642 µM) in experiment [4].

Regarding `C[N+]1(CC2=C(C(=O)[O-])N3C(=O)[C@@H](NC(=O)/C(=N\OC(CNC(=O)c4ccc(O)c(O)c4Cl)C(=O)[O-])c4csc(N)n4)[C@H]3SC2)CCCC1.[Na+]` (stereo partly drawn) [Compound I-8], the MIC turned out to be 0.5 µg/mL in experiment [1]; 1 µg/mL in experiment [2]; 0.125 µg/mL in the experiment on P. aeruginosa SR24; 4 µg/mL in experiment [3]; 0.063 µg/mL in the experiment with A. baumannii SR24396; 8 µg/mL in experiment [4].
